Laboratory results: the supplement of paper PMC8671470

Columns and labels:
Conditions in all cases: 72 h
[1] = system: KU-812; test: cell viability (% survival relative to DMSO control, bortezomib = 0%); higher = less cytotoxic
In short: (§1)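 Fifteen myeloid leukaemia cell lines were exposed to compounds at 1, 10, 100, 1000 or 10000 nM in 384-well plates for 72 h at 37 °C and 5% CO2. Viability was read by CellTiter-Glo luminescence and normalised, with vehicle as 100% and a 10 µM positive control as 0%. Values are percent survival averaged over duplicates.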

[2] = system: KG-1; test: as above
In short: as §1

[3] = system: NOMO-1; test: as above
In short: as §1

[4] = system: MOLM-13; test: as above
In short: as §1

[5] = system: Mono-Mac-6; test: as above
In short: as §1

[6] = system: HL-60; test: as above
In short: as §1

[7] = system: HEL; test: as above
In short: as §1

[8] = system: THP-1; test: as above
In short: as §1

[9] = system: MV4-11; test: as above
In short: as §1

[10] = system: LAMA-84; test: as above
In short: as §1

[11] = system: SHI-1; test: as above
In short: as §1

[12] = system: ML-2; test: as above
In short: as §1

[13] = system: K-562; test: as above
In short: as §1

[14] = system: KCL-22; test: as above
In short: as §1

[15] = system: BV-173; test: as above
In short: as §1

[16] = system: KU-812
In short: (§2)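 Fifteen myeloid leukaemia lines were incubated for 72 h at 37 °C with 5% CO2 across five tenfold doses from 1 to 10,000 nM, in duplicate. ATP luminescence was normalised to vehicle and to a positive control at 10 µM and fitted with a four-parameter log-logistic model. The IC50 came from these dose–response fits.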

[17] = system: KG-1
In short: as §2

[18] = system: NOMO-1
In short: as §2

[19] = system: MOLM-13
In short: as §2

[20] = system: Mono-Mac-6
In short: as §2

[21] = system: HL-60
In short: as §2

[22] = system: HEL
In short: as §2

[23] = system: THP-1
In short: as §2

[24] = system: MV4-11
In short: as §2

[25] = system: LAMA-84
In short: as §2

[26] = system: SHI-1
In short: as §2

[27] = system: ML-2
In short: as §2

[28] = system: K-562
In short: as §2

[29] = system: KCL-22
In short: as §2

[30] = system: BV-173
In short: as §2

CCCc1nc(C)c2c(=O)nc(-c3cc(S(=O)(=O)N4CCN(CC)CC4)ccc3OCC)[nH]n12 [Vardenafil]
cell viability [%]
Conditions | 1 nM | 10 nM | 100 nM | 1000 nM | 10000 nM
[1] | 95.4 | 106 | 92 | 102 | 102
[2] | 95.4 | 95.9 | 92.8 | 110 | 107
[3] | 94.4 | 84.3 | 96.1 | 101 | 93.1
[4] | 107 | 123 | 71.2 | 91.2 | 94.5
[5] | 102 | 83 | 106 | 95.1 | 102
[6] | 107 | 115 | 89.2 | 112 | 102
[7] | 91.9 | 111 | 94.4 | 102 | 93.7
[8] | 93.8 | 85 | 107 | 108 | 96.5
[9] | 97.9 | 87.5 | 85.2 | 97.7 | 93.3
[10] | 92.6 | 95.2 | 101 | 92.2 | 97.8
[11] | 102 | 115 | 89.8 | 99.7 | 101
[12] | 98.8 | 96.3 | 88 | 97.4 | 110
[13] | 109 | 107 | 93.8 | 90.8 | 92.6
[14] | 105 | 110 | 98.3 | 95.8 | 94.6
[15] | 98.3 | 80.3 | 101 | 108 | 82.8

Conditions | IC50 (cell viability) [µM]
[16] | > 10
[17] | > 10
[18] | > 10
[19] | > 10
[20] | > 10
[21] | > 10
[22] | > 10
[23] | > 10
[24] | > 10
[25] | > 10
[26] | > 10
[27] | > 10
[28] | > 10
[29] | > 10
[30] | > 10

CCc1c(C(=O)C(N)=O)c2c(OCC(=O)O)cccc2n1Cc1ccccc1 [Varespladib]
cell viability [%]
Conditions | 1 nM | 10 nM | 100 nM | 1000 nM | 10000 nM
[1] | 96.1 | 97.7 | 98.5 | 97.6 | 86.4
[2] | 99.5 | 96.9 | 99.4 | 95.9 | 94
[3] | 102 | 91.6 | 101 | 115 | 95.2
[4] | 80.7 | 95.3 | 85.8 | 101 | 118
[5] | 99.1 | 101 | 93.7 | 100 | 89
[6] | 98.8 | 101 | 92.8 | 96.2 | 93.2
[7] | 94.8 | 111 | 99.2 | 109 | 87.6
[8] | 103 | 105 | 100 | 97.4 | 96.9
[9] | 88.4 | 109 | 101 | 88.3 | 98.5
[10] | 95.6 | 100 | 103 | 101 | 81.3
[11] | 106 | 99 | 106 | 92.9 | 93.4
[12] | 105 | 105 | 109 | 104 | 89.7
[13] | 98.5 | 97.5 | 110 | 92.4 | 99.9
[14] | 91.2 | 107 | 105 | 102 | 96.5
[15] | 90.6 | 104 | 85.4 | 99.3 | 88.7

Conditions | IC50 (cell viability) [µM]
[16] | > 10
[17] | > 10
[18] | > 10
[19] | > 10
[20] | > 10
[21] | > 10
[22] | > 10
[23] | > 10
[24] | > 10
[25] | > 10
[26] | > 10
[27] | > 10
[28] | > 10
[29] | > 10
[30] | > 10

N#Cc1ccc(N(Cc2ccc(Br)cc2)n2cnnc2)cc1 [YM511]
cell viability [%]
Conditions | 1 nM | 10 nM | 100 nM | 1000 nM | 10000 nM
[1] | 95.9 | 99.6 | 89.3 | 102 | 92.7
[2] | 99.3 | 105 | 90.2 | 118 | 92.1
[3] | 103 | 104 | 98.4 | 104 | 96.2
[4] | 131 | 99.5 | 91.6 | 105 | 94.5
[5] | 110 | 102 | 97 | 106 | 93.9
[6] | 104 | 76.2 | 102 | 117 | 101
[7] | 113 | 104 | 97.7 | 118 | 104
[8] | 99.3 | 103 | 93.4 | 105 | 91.9
[9] | 98.9 | 93.6 | 115 | 106 | 98.9
[10] | 106 | 100 | 93.4 | 101 | 103
[11] | 117 | 103 | 95.7 | 103 | 102
[12] | 105 | 108 | 106 | 107 | 98.5
[13] | 107 | 104 | 97 | 115 | 99.3
[14] | 111 | 97.9 | 106 | 102 | 99.6
[15] | 92 | 95.3 | 101 | 107 | 100

Conditions | IC50 (cell viability) [µM]
[16] | > 10
[17] | > 10
[18] | > 10
[19] | > 10
[20] | > 10
[21] | > 10
[22] | > 10
[23] | > 10
[24] | > 10
[25] | > 10
[26] | > 10
[27] | > 10
[28] | > 10
[29] | > 10
[30] | > 10
